According to ChEMBL document CHEMBL2321817, “Detecting allosteric sites of HIV-1 reverse transcriptase by X-ray crystallographic fragment screening” (J Med Chem, 2013):
pIC50: −log10 of the molar value. Blank lines part the entries; values can stand above or below the compound they belong to. Active and inactive are the calls of the source. The rule behind the calls is not given here.

Tests used:
[1] = target: Human immunodeficiency virus type 1 reverse transcriptase (Human immunodeficiency virus 1) (UniProt Q72547); assay: Inhibition of wild type HIV-1 reverse transcriptase p66/p51 399 site after 30 mins by fluorescence assay
[2] = target: T1, Human immunodeficiency virus type 1 reverse transcriptase (Human immunodeficiency virus 1, UniProt Q72547); assay: Inhibition of wild type HIV-1 reverse transcriptase incoming nucleotide binding site after 30 mins by fluorescence assay
[3] = target: Human immunodeficiency virus type 1 reverse transcriptase (Human immunodeficiency virus 1) (UniProt Q72547); assay: Inhibition of wild type HIV-1 reverse transcriptase 428 site at 1 mM after 30 mins by fluorescence assay relative to control
[4] = target: Human immunodeficiency virus type 1 reverse transcriptase (Human immunodeficiency virus 1) (UniProt Q72547); assay: Inhibition of wild type HIV-1 reverse transcriptase knuckles site at 1 mM after 30 mins by fluorescence assay
[5] = target: T1, Human immunodeficiency virus type 1 reverse transcriptase; assay: Inhibition of wild type HIV-1 reverse transcriptase knuckles site after 30 mins by fluorescence assay
[6] = target: Human immunodeficiency virus type 1 reverse transcriptase (Human immunodeficiency virus 1) (UniProt Q72547); assay: Inhibition of wild type HIV-1 reverse transcriptase RNase H primer grip adjacent site after 30 mins by fluorescence assay
[7] = target: T1, Human immunodeficiency virus type 1 reverse transcriptase; assay: Inhibition of wild type HIV-1 reverse transcriptase 507 site incubated after 30 mins by fluorescence assay
[8] = target: T1, Human immunodeficiency virus type 1 reverse transcriptase; assay: Inhibition of wild type HIV-1 reverse transcriptase p66/p51 NNRTI adjacent binding site after 30 mins by fluorescence assay

inhibition [1]: inactive
Structure (SMILES): Cc1c(CO)cnn1-c1ccc(F)cc1

Structure (SMILES): CN1CCN(c2ccc(C(=O)O)cc2)CC1
pIC50 [2]: 3.70

Structure (SMILES): NCC(=O)Nc1ccc2[nH]c(=O)[nH]c2c1
inhibition [3]: 30%

inhibition [4]: inactive
Structure (SMILES): NCc1ccc(OC(F)(F)F)cc1

Structure (SMILES): Oc1ccc(OC(F)(F)F)cc1
pIC50 [5]: 3.22

inhibition [6]: inactive
Structure (SMILES): Cn1ncc(C(=O)O)c1-c1ccccc1

Structure (SMILES): CN(CC(=O)N1CCCc2ccccc21)Cc1nc(=O)c2ccccc2[nH]1
pIC50 [7]: 3.82

Structure (SMILES): CCOC(=O)c1cnn2ccccc12
pIC50 [8]: 3.46
